# Measured values from ChEMBL document CHEMBL1201862, “PubChem BioAssay data set” (2004).
# Activity calls are given as the source filed them.
# Assays:
# [1] = target: T1, Alkaline phosphatase, tissue-nonspecific isozyme (Homo sapiens, UniProt P05186)
# T1 sequence (P05186 whole entry): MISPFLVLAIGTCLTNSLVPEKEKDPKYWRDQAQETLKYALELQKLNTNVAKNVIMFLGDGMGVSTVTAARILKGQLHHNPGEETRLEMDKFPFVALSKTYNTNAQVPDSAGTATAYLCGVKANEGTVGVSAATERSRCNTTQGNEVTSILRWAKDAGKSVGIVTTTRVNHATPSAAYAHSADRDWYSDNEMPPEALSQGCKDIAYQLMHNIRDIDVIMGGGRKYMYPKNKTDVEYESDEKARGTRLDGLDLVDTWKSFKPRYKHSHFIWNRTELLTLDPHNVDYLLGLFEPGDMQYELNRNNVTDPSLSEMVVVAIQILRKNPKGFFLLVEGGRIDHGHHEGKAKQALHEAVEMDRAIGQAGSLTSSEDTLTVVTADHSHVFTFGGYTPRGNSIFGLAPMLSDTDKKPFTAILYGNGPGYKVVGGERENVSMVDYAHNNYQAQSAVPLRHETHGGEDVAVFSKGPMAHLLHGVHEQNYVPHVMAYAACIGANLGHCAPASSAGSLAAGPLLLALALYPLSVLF
# X-box-binding protein 1 = X-box-binding protein 1 (Homo sapiens, UniProt P17861); type: functional, Cricetulus griseus;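 note: confirmatory dose-response counter-screen serving a CHOP assay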
# X-box-binding protein 1, sequence (P17861 whole entry): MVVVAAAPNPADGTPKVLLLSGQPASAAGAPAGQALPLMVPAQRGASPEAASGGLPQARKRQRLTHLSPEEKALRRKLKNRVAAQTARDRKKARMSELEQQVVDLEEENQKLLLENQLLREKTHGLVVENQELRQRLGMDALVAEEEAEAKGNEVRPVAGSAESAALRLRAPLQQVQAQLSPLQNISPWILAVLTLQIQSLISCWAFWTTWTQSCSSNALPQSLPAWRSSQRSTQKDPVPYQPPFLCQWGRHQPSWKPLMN
# Cytochrome P450 2C19 = Cytochrome P450 2C19 (Homo sapiens, UniProt P33261); test: Cytochrome panel assay with activity outcomes. Panel member name: p450-cyp2c19 Compounds with AC50 equal or less than 10 uM are considered active; type: functional; settings: read-out: AC50
# Cytochrome P450 2C19, sequence (P33261 whole entry): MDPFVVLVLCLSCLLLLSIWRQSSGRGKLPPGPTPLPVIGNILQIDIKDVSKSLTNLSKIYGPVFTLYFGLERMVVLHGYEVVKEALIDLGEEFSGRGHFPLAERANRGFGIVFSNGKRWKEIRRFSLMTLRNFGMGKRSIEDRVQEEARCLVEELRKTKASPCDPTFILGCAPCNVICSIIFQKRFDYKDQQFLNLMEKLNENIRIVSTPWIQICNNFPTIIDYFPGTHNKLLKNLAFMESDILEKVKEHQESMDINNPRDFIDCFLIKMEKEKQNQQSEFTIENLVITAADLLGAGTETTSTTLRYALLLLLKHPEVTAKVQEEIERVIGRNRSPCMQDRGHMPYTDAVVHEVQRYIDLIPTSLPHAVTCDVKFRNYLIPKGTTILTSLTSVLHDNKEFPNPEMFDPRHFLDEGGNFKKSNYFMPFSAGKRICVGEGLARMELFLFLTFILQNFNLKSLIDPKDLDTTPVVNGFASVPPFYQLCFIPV
# [2] = target: T2, Aryl hydrocarbon receptor (Homo sapiens, UniProt P35869); test: Luminescence-based cell-based high throughput dose response assay for activators of the Aryl Hydrocarbon Receptor (AHR). [Related pubchem assays: 2796 (Primary screen (AHR activators in singlicate)), 2845 (Confirmation screen (AHR activators in triplicate)), 434939 (Counterscreen (PXR activators in triplicate)), 2804 (Summary (AHR activators))]; type: ADME
# T2 sequence (P35869 whole entry): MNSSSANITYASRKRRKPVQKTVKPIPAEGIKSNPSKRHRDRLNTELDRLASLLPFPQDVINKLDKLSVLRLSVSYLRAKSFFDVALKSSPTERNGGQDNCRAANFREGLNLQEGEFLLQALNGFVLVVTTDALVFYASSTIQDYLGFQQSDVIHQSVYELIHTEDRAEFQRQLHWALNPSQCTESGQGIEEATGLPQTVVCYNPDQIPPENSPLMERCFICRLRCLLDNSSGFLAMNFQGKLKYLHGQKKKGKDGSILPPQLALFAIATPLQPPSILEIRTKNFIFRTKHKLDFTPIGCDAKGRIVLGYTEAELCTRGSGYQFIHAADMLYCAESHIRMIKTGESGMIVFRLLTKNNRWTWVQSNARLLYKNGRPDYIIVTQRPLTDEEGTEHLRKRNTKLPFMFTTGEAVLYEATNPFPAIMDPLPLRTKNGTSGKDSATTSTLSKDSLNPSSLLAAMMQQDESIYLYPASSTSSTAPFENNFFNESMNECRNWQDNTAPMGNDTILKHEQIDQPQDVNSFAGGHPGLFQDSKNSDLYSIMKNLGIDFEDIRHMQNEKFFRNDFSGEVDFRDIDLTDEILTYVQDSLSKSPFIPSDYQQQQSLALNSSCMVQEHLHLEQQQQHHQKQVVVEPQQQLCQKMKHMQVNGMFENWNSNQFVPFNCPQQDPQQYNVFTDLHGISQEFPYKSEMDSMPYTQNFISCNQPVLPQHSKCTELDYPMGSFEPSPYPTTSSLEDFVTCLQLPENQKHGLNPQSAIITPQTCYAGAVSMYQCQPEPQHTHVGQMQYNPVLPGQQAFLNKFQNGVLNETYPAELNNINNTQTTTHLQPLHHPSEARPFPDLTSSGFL
# [3] = system: Streptococcus sp. 'group A'; test: growth inhibition of control SK(-) GAS strain, dose response, counter-screen for streptokinase expression inhibitor project, luminescence, kanamycin, BacTiterGlo, confirmation (AID 1900); type: functional, organism-based
# Streptococcus = test: Group A Streptococcus viability loss, dose response, counter-screen for streptokinase expression inhibitor project, luminescence, BacTiterGlo (AID 1915); type: functional, organism-based;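 note: potency for reduction of bacterial viability or growth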
# Vero = Vero cell cytotoxicity, cytotoxicity control for flavivirus capping enzyme inhibitors (AID 588742); type: functional; settings: Chlorocebus sabaeus
# Genome polyprotein = Genome polyprotein (dengue virus type 2, UniProt P29990); test: Dengue-2 NS5 methyltransferase inhibitors, primary screen, biochemical, confirmation dose response (AID 588689); type: functional
# Genome polyprotein, sequence (P29990 2492-3391 limits assumed): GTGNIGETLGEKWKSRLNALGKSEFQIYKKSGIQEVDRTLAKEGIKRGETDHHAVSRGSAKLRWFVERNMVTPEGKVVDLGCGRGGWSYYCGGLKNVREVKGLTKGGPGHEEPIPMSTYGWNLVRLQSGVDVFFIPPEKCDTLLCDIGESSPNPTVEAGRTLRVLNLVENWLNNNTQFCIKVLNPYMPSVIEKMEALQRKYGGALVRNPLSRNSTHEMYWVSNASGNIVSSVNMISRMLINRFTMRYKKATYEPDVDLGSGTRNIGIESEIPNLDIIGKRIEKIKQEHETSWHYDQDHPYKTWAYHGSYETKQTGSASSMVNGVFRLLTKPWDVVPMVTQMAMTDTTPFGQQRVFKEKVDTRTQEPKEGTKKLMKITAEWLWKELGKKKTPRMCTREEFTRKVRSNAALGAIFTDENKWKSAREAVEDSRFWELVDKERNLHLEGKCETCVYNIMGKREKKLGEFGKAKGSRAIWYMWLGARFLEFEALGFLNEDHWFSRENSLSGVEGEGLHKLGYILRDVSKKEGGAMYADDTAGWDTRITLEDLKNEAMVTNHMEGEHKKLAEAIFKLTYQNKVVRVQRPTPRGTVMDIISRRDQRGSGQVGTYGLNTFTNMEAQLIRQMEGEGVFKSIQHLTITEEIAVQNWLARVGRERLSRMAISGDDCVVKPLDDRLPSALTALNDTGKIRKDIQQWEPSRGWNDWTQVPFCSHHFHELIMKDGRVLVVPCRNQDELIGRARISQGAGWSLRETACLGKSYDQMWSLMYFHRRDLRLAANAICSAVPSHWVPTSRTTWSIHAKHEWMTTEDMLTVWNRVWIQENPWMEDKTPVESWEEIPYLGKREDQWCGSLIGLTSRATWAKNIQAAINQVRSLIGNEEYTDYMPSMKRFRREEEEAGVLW
# [4] = Luminescence Cell-Based Dose Confirmation HTS to Identify Inhibitors of Polyadenylation.; type: functional
# [5] = A cytotoxicity screen of small molecule inhibitors of the PhoP region in Salmonella typhi identified in the primary screen. [Related pubchem assays: 1850, 1864, 1985 ]; type: functional
smiles,measurement,setting,value
O=C(COC(=O)C1CC(=O)N(Cc2ccccc2)C1)Nc1ccc(Cl)cc1F (configuration not stated),EC50,[1],> 100 µM (not active)
CCOC(=O)c1[nH]c2ccc(Cl)cc2c1-c1ccccc1,Absolute IC50 (XBP1),X-box-binding protein 1,10 µM
same,AC50,Cytochrome P450 2C19,4.47 µM (inconclusive)
Cc1nc(Cl)sc1C(=O)Nc1ccc(C(F)(F)F)cc1,EC50,[2],1.57 µM (active)
Fc1cccc2sc(Nc3nnc(-c4ccccc4)o3)nc12,EC50,[3],2 µM (active)
same,EC50,[1],44.2 µM (active)
same,EC50,Streptococcus,6.97 µM (active)
same,CC50,Vero,27 µM (active)
same,IC50,Genome polyprotein,50.2 µM (active)
CC(NC(=O)CCCCCCN1C(=O)c2ccccc2C1=O)c1ccc2c(c1)CCCC2 (configuration not stated),EC50,[4],> 120 µM (not active)
Clc1ccc2[nH]c(N3CCCCC3)nc2c1,EC50,[5],> 50 µM (active)
Cc1ccc(C2CC(=O)NC(SCCC(C)C)=C2C#N)cc1 (configuration not stated),EC50,[5],> 50 µM (active)
